US9063142B1, “Method of predicting sensitivity to prostate cancer therapy” (University of Florida, priority 2004, dated 2015)

How the values were obtained:
Format in all cases: cell-based, human
LNCaP cells [1] = assay: DNA fragmentation, Cell Death Detection ELISA; settings: co-treated with 25 micro-M roscovitine, 20 hr, FIG. 3A
Protocol: (§1) DNA fragmentation was determined using a photometric enzyme-linked immunoassay (Cell Death Detection ELISA kit, Roche) as specified by the manufacturer. […] Cell lysates were incubated with biotin-conjugated anti-histone antibody and peroxidase-conjugated anti-DNA antibody on streptavidin-coated microtiter plates for 2 hr at room temperature. After incubation with ATBS substrate for development of color, absorbance was read on a spectrophotometer at 405 nm against ABTS solution as the blank. For background determination, lysis buffer was used instead of cell lysate.

PC3 cells = assay: DNA fragmentation, Cell Death Detection ELISA; settings: 20 hr, FIG. 5B
Protocol: as §1

cytochrome c = assay: Cytochrome c in S100 cytosolic extracts of LNCaP cells, Western blotting; settings: 25 micro-M, 20 hr, FIG. 3B
Protocol: Cells were washed in ice-cold PBS, resuspended in an isotonic mitochondrial buffer (210 mM mannitol, 70 mM sucrose, 1 mM EDTA, 10 mM Hepes, pH 7.5, and a protease inhibitor cocktail (Sigma)), and homogenized in a Dounce homogenizer. The heavy membrane fraction was removed by two successive centrifugations, the first at 1000 H g for 10 min and the second at 10,000 H g for 10 min. To obtain the […], the supernatant was centrifuged at 100,000 H g for 90 min.

LNCaP-Rf cells = assay: Keratin 18 cleavage, M30 immunostaining; settings: 25 micro-M, 20 hr, FIG. 2B
Protocol: After incubation, cells were fixed in ice-cold methanol at […]. for 30 min and incubated with FITC-conjugated M30 antibody for 60 min at room temperature. Cells were mounted with Vectashield containing DAPI.

LNCaP cells [2] = assay: PARP cleavage by Western blotting; settings: 30 micro-M pifithrin-alpha 24 hr, then 25 micro-M roscovitine 16 hr, FIG. 5A
Protocol: (§2) Cells were rinsed with PBS and lysed in a buffer containing 50 mM Hepes, pH 7.5, 150 mM NaCl, 1 mM EDTA, 1 mM EGTA, 10% glycerol, 0.5% NP-40, 1 mM dithiothreitol, 0.1 mM phenylmethylsulfonyl fluoride, 2.5 micro-g/ml leupeptin, 0.5 mM NaF, and 0.1 mM Na3VO4. After a 30 min incubation, insoluble material was removed by centrifugation. Cell extracts normalized for amount protein were resolved by SDS-PAGE and transferred to nitrocellulose membranes. Blots were blocked in PBS containing 0.05% Tween and 5% instant milk and incubated with antibody in PBS containing 0.05% Tween for 2 hr at room temperature. Proteins recognized by the antibody were detected by enhanced chemiluminescence using a horseradish peroxidase-coupled secondary antibody as specified by the manufacturer (Pierce).

p53 = p53 abundance in LNCaP cells, Western blotting; settings: 30 micro-M pifithrin-alpha 24 hr, then 25 micro-M roscovitine 16 hr, FIG. 5A
Protocol: as §2

Molecule: z-DEVD-fmk
- roscovitine-induced apoptosis (DNA fragmentation) in presence of caspase inhibitor (LNCaP cells [1]): did not induce apoptosis

Molecule: CC[C@H](CO)Nc1nc(NCc2ccccc2)c2ncn(C(C)C)c2n1 [roscovitine, 6-benzylamino-2-[(R)-1-ethyl-2-hydroxye-thylamino]-9-isopropylpurine]
- increase in amounts of fragmented DNA (PC3 cells; 25 μM): 8 fold
- increase in amounts of fragmented DNA (PC3 cells; 50 μM): 3 fold
- cytochrome c in the cytosol (cytochrome c): present
- keratin 18 cleavage (LNCaP-Rf cells): keratin 18 cleavage

Molecule: z-LEHD-fmk
- roscovitine-induced apoptosis (DNA fragmentation) in presence of caspase inhibitor (LNCaP cells [1]): did not induce apoptosis

Molecule: Cc1ccc(C(=O)Cn2c3c(sc2=N)CCCC3)cc1 [pifithrin-α]
- PARP cleavage in roscovitine-treated cells (LNCaP cells [2]): substantially reduced
- p53 abundance in cells co-treated with roscovitine (p53): did not increase
